Experimental data: publication PMC5691054, “An unexpected protein interaction promotes drug resistance in leukemia” (Nature Communications, 2017)
Entries after “also recorded” stand apart in the source; their conditions may differ.

Key:
[1] = tested on: MO7e cells; test: Cytarabine cytotoxicity in MO7e cells; type: cell-based, Human; details: in words
Description: MO7e cells were seeded at 1500 cells per well of a 96-well plate. Cells were then treated with Cytarabine at increasing concentrations ranging from 0.5 to 500 μM for 4 h in serum-free media. Cells were washed three times with PBS and replaced with fresh complete media for 68 h. Cell viability analysis was determined using CellTiter Glo. Where applicable, cells were treated with 10 nM Antimycin A. IC50 values were calculated using GraphPad Prism.

[2] = tested on: murine hematopoietic progenitor cells (HPC); test: Hematopoietic progenitor cell serial replating in methylcellulose
Description: In these experiments, littermates were used as controls. Bone marrow from 8- to 12-week-old female virgin C57/BL6 mice were harvested. Progenitors were enriched by incubating with lineage-PE antibodies (CD4, CD8, Mac1, Gr1, NK1.1, B220, and Ter119) and separated using AutoMACS Pro (Miltenyi). Hematopoetic progenitor cells were cultured in the presence of recombinant murine SCF (rmSCF), IL3 (rmIL3), and IL6 (rmIL6) (Peprotech; all 50 ng/ml) for 48 h before transduction on RetroNectin (Takara) coated plates. Retroviral supernatant containing media was produced by transient transfection of HEK293T cells with MSCV based retroviral plasmids encoding either MYCN-ires-YFP or MPP1-ires-CFP as previously described[35]. Forty-eight hours post transduction, cells were harvested, sorted for either YFP or CFP expression, and plated on methylcellulose containing IL3, IL6, SCF, and EPO (Stem Cell Technologies). Colonies were counted after 7 days growth at 37 °C, harvested, and replated.

[3] = tested on: ABCC4 plasma membrane localization in HEK293 cells expressing MPP1 and GFP-ABCC4; test: ABCC4 plasma membrane localization (confocal microscopy); type: cell-based, Human; details: in words; confocal microscopy
Description: Peptides containing or lacking the ABCC4-PDZ motif were fused with the cell penetrating HIV-TAT peptide. These peptides were tested for their effect on ABCC4 plasma membrane localization. HEK293 cells were transfected with MPP1 and GFP-ABCC4 and the ER protein, calreticulin. The plasma membrane was counter-stained with wheat-germ-agglutinin (WGA) labeled with Alexa647 after treatment with either ABCC4-PDZ or ABCC4ΔC peptide.
HEK293 cells were seeded on chambered coverglass slides (LAB-TEK) 48 h before transfection with plasmid DNA (250 ng) encoding pAc-GFP-ABCC4 or ABCC4ΔC and pCal plasmid encoding the ER resident protein calreticulin conjugated to RFP (Origene). Transfection was performed using Lipofectamine 2000 as per the manufacturer’s instructions. Immediately prior to visualizing cells, cells were counterstained with the plasma membrane marker wheat-germ agglutinin (WGA) conjugated to Alexa-647 (Invitrogen). All confocal microscopy images were acquired on a 3i Marianas system configured with an Yokagowa CSU-X spinning disk confocal microscope utilizing a ×63 Zeiss objective, using the 488 (GFP), 561 (RFP), and 660 (far red) laser lines.

[4] = target: T1, MPP1 (Homo sapiens, UniProt Q00013); test: MPP1 protein expression (immunoblot); type: cell-based; details: Antimycin A treatment; Meg01 cells (Supplementary Fig. 6e), in words
T1 construct: incubated with various concentrations of full-length MPP1; His tag (N); S-tag (N); made in house; host or cells: E. coli
T1 sequence (Q00013 1-466): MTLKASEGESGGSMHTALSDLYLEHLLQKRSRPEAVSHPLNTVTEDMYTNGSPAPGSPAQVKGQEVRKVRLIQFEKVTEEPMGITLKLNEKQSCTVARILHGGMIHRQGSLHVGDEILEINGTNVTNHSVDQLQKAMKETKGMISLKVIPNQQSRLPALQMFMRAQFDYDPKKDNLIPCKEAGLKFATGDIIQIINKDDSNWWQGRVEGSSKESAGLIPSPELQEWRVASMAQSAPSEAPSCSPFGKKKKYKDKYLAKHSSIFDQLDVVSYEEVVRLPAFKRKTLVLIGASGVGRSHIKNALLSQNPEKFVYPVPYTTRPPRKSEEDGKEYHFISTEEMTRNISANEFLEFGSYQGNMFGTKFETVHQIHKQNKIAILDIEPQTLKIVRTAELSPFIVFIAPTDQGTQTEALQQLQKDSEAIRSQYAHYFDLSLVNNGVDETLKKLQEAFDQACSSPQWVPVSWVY
Excerpt: Forty-eight hours after transfection, cells were trypsinized and washed twice in PBS. Cells were lysed in MPER lysis buffer (Pierce) containing 1× protease inhibitor cocktail (Roche). Cell lysates were subjected to three rounds of sonication on ice with a minimum of 15 s of sonication per round. Protein concentration of the lysates was quantified using a Bradford assay (Biorad). Twenty-five micrograms of total protein lysates were loaded and separated by SDS-PAGE on a 10% gel. Proteins were then transferred to a nitrocellulose membrane (GE Healthcare) and probed with antibodies directed against various proteins of interest. The levels of pAcGFP-tagged ABCC4 and ABCC4ΔC were determined using the polyclonal full-length GFP antibody (1:2000, Santa Cruz). The level of MPP1 was detected using the monoclonal p55/MPP1 antibody (1:2500) from Epitomics. Where specified, the levels of ABCC4 were detected by using the rat monoclonal M4I10 antibody (1:2000, Abcam). An anti-Actin antibody was used as a loading control (1:10,000). Secondary antibodies conjugated to HRP (1:2000, GE Healthcare) were used. For co-immunoprecipitation experiments, light chain-specific secondary antibodies (1:5000, Jackson Immunoresearch) was used to prevent cross-contamination with heavy chain antibodies. The Clarity chemiluminescence (BioRad) reagent was used to detect the proteins. […]

`CCCCCC[C@H]1C(=O)O[C@H](C)[C@H](NC(=O)c2cccc(NC=O)c2O)C(=O)O[C@@H](C)[C@@H]1OC(=O)CC(C)C` [Antimycin A] was tested, and the “effect of Antimycin A on cytarabine sensitivity” value ([1]; MO7e vs. MO7e-ABCC4 knockout, Antimycin A 10 nM) was “specifically sensitized MO7e cells to Cytarabine, but not MO7e-ABCC4 knockout cells; also recorded: specifically sensitizes ABCC4 expressing MO7e cells, but not ABCC4 KO cells”, the “effect of co-treatment on IC50 for cytarabine” value ([1]; peer review file) was “reduce the IC50 for cytarabine” and the “effect on MPP1-driven methylcellulose replating” value ([2]; HPC transduced with MPP1, Antimycin A 10 nM, triplicate) was “blocked replating of MPP1 overexpressing HSC; also recorded: attenuated”. For the same compound, the “effect on colony formation of normal hematopoietic progenitors” value ([2]; normal hematopoietic progenitors, Antimycin A 10 nM (peer review file)) was “did not effect; also recorded: does not reduce the”, the “effect on ABCC4 plasma membrane localization” value [3] was “ABCC4 relocalized from the plasma membrane to the cytosol; also recorded: causes ABCC4 to relocalize from the plasma membrane” and the “effect on protein expression of MPP1” value [4] was “unchanged; also recorded: does not reduce the protein expression of MPP1”.
